Laboratory results as given in US5424456A, “N-arylalkylderivatives of 2-aminomethyl-2,3-dihydro-1,4-benzodioxine and the process of preparation thereof” (Vyzkumny Ustav Pro Farmacii A Biochemii s.p., priority 1991, dated 1995).

How the values were obtained:
α-adrenergic [1] = target: T1, α-adrenergic (Rattus norvegicus, UniProt P23944); assay: α-adrenergic blocking activity, norepinephrine-induced contraction of helically cut rat aortic strip; conditions: 37° C., cumulative doses, read-out: IC50 (concentration causing 50% relaxation)
T1 construct: helically cut rat aortic strip; from tissue; host or cells: rat aorta (helically cut strip)
T1 sequence (P23944 1-561): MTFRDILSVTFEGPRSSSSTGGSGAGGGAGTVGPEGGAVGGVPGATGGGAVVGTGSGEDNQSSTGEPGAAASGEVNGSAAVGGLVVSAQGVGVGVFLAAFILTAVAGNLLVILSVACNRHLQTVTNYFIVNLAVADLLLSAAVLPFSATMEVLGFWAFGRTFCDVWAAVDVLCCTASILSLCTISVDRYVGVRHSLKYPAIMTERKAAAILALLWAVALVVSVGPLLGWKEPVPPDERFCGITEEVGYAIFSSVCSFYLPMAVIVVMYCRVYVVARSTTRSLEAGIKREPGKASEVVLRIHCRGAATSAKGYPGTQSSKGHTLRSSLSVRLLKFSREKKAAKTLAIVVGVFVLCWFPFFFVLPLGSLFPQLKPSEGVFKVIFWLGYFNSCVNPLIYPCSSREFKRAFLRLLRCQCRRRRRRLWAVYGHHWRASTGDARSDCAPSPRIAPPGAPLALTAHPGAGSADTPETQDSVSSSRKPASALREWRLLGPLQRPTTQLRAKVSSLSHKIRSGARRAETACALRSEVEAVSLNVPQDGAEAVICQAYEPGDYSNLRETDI
Method: a) The α-adrenergic blocking activity of the compounds was tested using a helically cut rat aortic strip in a Krebs-Henselheit solution at 37° C., bubbled with a mixture of 95% O2 and 5% CO2. Norepinephrine induced contractions were detected isometrically. The compounds were added in cumulative doses and the relaxing activity was expressed in per cents of the maximum norepinephrine contraction.

α-adrenergic [2] = assay: α-adrenergic blocking activity, postdecapitation muscular contractions in rats; assay type: in vivo, rat; conditions: i.v., 4.6 mg/kg, 30 minutes prior to decapitation
Method: b) The α-adrenergic blocking activity of compounds VUFB 17951 and VUFB 17959 was also shown in the test of influencing the postdecapitation muscular contractions in rats. The test compounds were administered intravenously in the dose of 4.6 mg/kg for VUFB 17951 and […] for VUFB 17959.

intraocular pressure = assay: Effect on the intraocular pressure; assay type: in vivo, rabbit; conditions: rabbits, topical intraocular administration
blood pressure = assay: Hypotensive activity, pentobarbital anaesthesized rabbits; assay type: in vivo, rabbit
Text: a) The blood pressure of pentobarbital anaesthesized rabbits was registered invasively in arteria femoralis. The average decrease in systolic (SBP) and diastolic (DBP) blood pressure expressed in per cents of the starting blood pressure level after intravenous and oral administration is shown in Tables 3 and 4.

[3] = p.o., 5.0 mg/kg, value 1 of 5 (heads 30/60/120/180 min)
[4] = p.o., 5.0 mg/kg, value 2 of 5 (heads 30/60/120/180 min)
[5] = p.o., 5.0 mg/kg, value 3 of 5 (heads 30/60/120/180 min)
[6] = p.o., 5.0 mg/kg, value 4 of 5 (heads 30/60/120/180 min)
[7] = p.o., 5.0 mg/kg, value 5 of 5 (heads 30/60/120/180 min)
[8] = p.o., 10.0 mg/kg, value 1 of 5 (heads 30/60/120/180 min)
[9] = p.o., 10.0 mg/kg, value 2 of 5 (heads 30/60/120/180 min)

COc1ccc(C(C#N)(CCCNCC2COc3ccccc3O2)C(C)C)cc1OC (racemic) [VUFB 17951, 5-(2,3-Dihydro-1,4-benzodioxin-2-ylmethylamino)-2-(3,4-dimethoxyphenyl)-2-isopropyl valeronitrile]
IC50 (α-adrenergic [1]): 6 µM
decrease in number of postdecapitation contractions (α-adrenergic [2]): highly significant decrease in number of postdecapitation contractions
lowering of the intraocular pressure (intraocular pressure): lowered significantly the intraocular pressure
decrease in diastolic blood pressure (DBP) (blood pressure; i.v., 0.2 mg/kg, 1 min): -36 per cents
decrease in systolic blood pressure (SBP) (blood pressure; i.v., 0.2 mg/kg, 1 min): -28 per cents
decrease in diastolic blood pressure (DBP) (blood pressure; i.v., 0.2 mg/kg, 5 min): -23 per cents
decrease in systolic blood pressure (SBP) (blood pressure; i.v., 0.2 mg/kg, 5 min): -24 per cents
decrease in diastolic blood pressure (DBP) (blood pressure; i.v., 0.2 mg/kg, 30 min): -24 per cents
decrease in systolic blood pressure (SBP) (blood pressure; i.v., 0.2 mg/kg, 30 min): -25 per cents
decrease in diastolic blood pressure (DBP) (blood pressure; i.v., 0.2 mg/kg, 60 min): -16 per cents
decrease in systolic blood pressure (SBP) (blood pressure; i.v., 0.2 mg/kg, 60 min): -18 per cents
decrease in diastolic blood pressure (DBP) (blood pressure; i.v., 0.2 mg/kg, 180 min): -17 per cents
decrease in systolic blood pressure (SBP) (blood pressure; i.v., 0.2 mg/kg, 180 min): -13 per cents
decrease in diastolic blood pressure (DBP) (blood pressure; i.v., 1.0 mg/kg, 1 min): -56 per cents
decrease in systolic blood pressure (SBP) (blood pressure; i.v., 1.0 mg/kg, 1 min): -47 per cents
decrease in diastolic blood pressure (DBP) (blood pressure; i.v., 1.0 mg/kg, 5 min): -36 per cents
decrease in systolic blood pressure (SBP) (blood pressure; i.v., 1.0 mg/kg, 5 min): -39 per cents
decrease in diastolic blood pressure (DBP) (blood pressure; i.v., 1.0 mg/kg, 30 min): -30 per cents
decrease in systolic blood pressure (SBP) (blood pressure; i.v., 1.0 mg/kg, 30 min): -35 per cents
decrease in diastolic blood pressure (DBP) (blood pressure; i.v., 1.0 mg/kg, 60 min): -33 per cents
decrease in systolic blood pressure (SBP) (blood pressure; i.v., 1.0 mg/kg, 60 min): -35 per cents
decrease in diastolic blood pressure (DBP) (blood pressure; i.v., 1.0 mg/kg, 180 min): -24 per cents
decrease in systolic blood pressure (SBP) (blood pressure; i.v., 1.0 mg/kg, 180 min): -17 per cents
decrease in diastolic blood pressure (DBP) (blood pressure; [3]): -6 per cents
decrease in systolic blood pressure (SBP) (blood pressure; [3]): -6 per cents
decrease in diastolic blood pressure (DBP) (blood pressure; [4]): -12 per cents
decrease in systolic blood pressure (SBP) (blood pressure; [4]): -14 per cents
decrease in diastolic blood pressure (DBP) (blood pressure; [5]): -18 per cents
decrease in systolic blood pressure (SBP) (blood pressure; [5]): -17 per cents
decrease in diastolic blood pressure (DBP) (blood pressure; [6]): -18 per cents
decrease in systolic blood pressure (SBP) (blood pressure; [6]): -13 per cents
decrease in diastolic blood pressure (DBP) (blood pressure; [7]): -18 per cents
decrease in systolic blood pressure (SBP) (blood pressure; [7]): -15 per cents
decrease in diastolic blood pressure (DBP) (blood pressure; [8]): -6 per cents
decrease in systolic blood pressure (SBP) (blood pressure; [8]): -5 per cents
decrease in diastolic blood pressure (DBP) (blood pressure; [9]): -11 per cents
decrease in systolic blood pressure (SBP) (blood pressure; [9]): -9 per cents
decrease in diastolic blood pressure (DBP) (blood pressure; p.o., 10.0 mg/kg, value 3 of 5 (heads 30/60/120/180 min)): -18 per cents
